# Test results reported in US4013507A, “Ionene polymers for selectively inhibiting the vitro growth of malignant cells” (California Institute of Technology, priority 1975, dated 1977).
# Key:
# L1210 leukemia system = conditions: when quaternized; J. Med. Chem. 10, 706, 1967; cited from earlier work
# in vivo [1] = conditions: mouse
# Text: Due to the high positive charge density and high water solubility, ionenes strongly interact with a wide variety of cell materials.
# [2] = tested on: sulfhydryl groups on the cell periphery; experiment: Effect of N-ethylmaleimide pretreatment on cell adhesion to ionene-coated surface; format: cell-based; conditions: pretreatment of the cells
# Text: Chemical interaction with DNA is also a possibility. In fact, ionenes form strong waterinsoluble complexes with DNA.
# DNA = conditions: polyamines, general knowledge; cited from earlier work
# [3] = Repeated-dose tolerance of PC-6 and cyclophosphamide in mice; format: in vivo; conditions: similar doses to nine doses of 100 mg/kg per day
# in vivo [4] = experiment: in vivo
# Text: Protamine sulfate and toluidine blue, neither of which are free of toxic effects, are clinically used as antiheparin agents.
# [5] = Protective action of heparin against toxicity of 6,3-ionene bromide, mice; format: in vivo
# Text: (§1) This is not surprising considering the formation of relatively stable complexes between ionenes and heparin.
# [6] = Protective action of heparin against toxicity of 6,3-ionene bromide, dogs; format: in vivo
# Text: as §1
compound,measurement,setting,value
O=C(Nc1ccc(-c2ccncc2)cc1)c1ccc(C(=O)Nc2ccc(-c3ccncc3)cc2)cc1,Effectiveness against L1210 leukemia system,L1210 leukemia system,very effective against the L1210 leukemia system when quaternized
C[N+](C)(CBr)CCCCCC[N+](C)(C)CBr,LD50,in vivo [1]; ip,10 to 50 mg/kg
same,LD50,in vivo [1]; po,300 to 500 mg/kg
C[N+](C)(CCBr)CCCCCC[N+](C)(C)CCBr,LD50,in vivo [1]; ip,10 to 50 mg/kg
same,LD50,in vivo [1]; po,100 to 200 mg/kg
C[N+](C)(CBr)CCCC[N+](C)(C)CBr,LD50,in vivo [1]; ip,> 1000 mg/kg
same,LD50,in vivo [1]; po,> 1000 mg/kg
C[N+]1(C)CC[N+](C)(C)CC1,LD50,in vivo [1]; ip,> 1000 mg/kg
same,LD50,in vivo [1]; po,> 1000 mg/kg
"CCN1C(=O)C=CC1=O [N-ethylmaleimide (NEM), N-ethylmaleimide]",Effect on cell adhesion on an ionene-coated surface,[2],inhibited cell adhesion on an ionene-coated surface
"NCCCCNCCCN [Spermidine, NH2 (CH2)3 --NH--(CH2)4 NH2]",Binding to DNA,DNA,bind to DNA
"NCCCNCCCCNCCCN [Spermine, NH2 (CH2)3 NH(CH2)4 NH(CH2)3 NH2]",Binding to DNA,DNA,bind to DNA
O=P1(N(CCCl)CCCl)NCCCO1 (stereo not drawn) [cyclophosphamide],Lethality of similar doses,[3],lethal within a much shorter time
Cc1cc2nc3ccc(N(C)C)cc3[s+]c2cc1N [toluidine blue],LD50,"in vivo [4]; in vivo, iv",45 mg/kg
Heparin,Survival of mice pretreated with heparin,"[5]; 6,3-ionene bromide doses relative to LD50, heparin pretreatment",survive doses three times the LD50 values with only mild toxicity symptoms
same,"Protective action in neutralizing the toxicity of 6,3-ionene bromide",[5]; mice,"offers a protective action in neutralizing the toxicity of 6,3-ionene bromide"
same,"Protective action in neutralizing the toxicity of 6,3-ionene bromide",[6],"offers a protective action in neutralizing the toxicity of 6,3-ionene bromide"
Protamine sulfate,i.v. LD50,"in vivo [4]; i.v., comparison agents, species not given",44 mg/kg
